In patent publication US20160061841A1, “NRF2-BASED CANCER TREATMENT AND DETECTION METHODS AND USES” (CanBas Co., Ltd., priority 2014, published 2016):
Where no end group is shown, it is not given here. [ ]: non-standard residue; d: D form. dPhe(F5) = N[C@H](Cc1c(F)c(F)c(F)c(F)c1F)C(=O)O; dBpa = N[C@H](Cc1ccc(C(=O)c2ccccc2)cc1)C(=O)O; dCha = N[C@H](CC1CCCCC1)C(=O)O

Assays:
A549 = test: CDDP-enhancing activity of CBP501, cell cycle distribution by flow-cytometry; assay type: cell-based, Human; conditions: 1 h co-exposure with CDDP, shift of subG1 or G2/M dose-response curve
Protocol: (§1) Cell culture and reagents. Human NSCLC cell lines were cultured in a variety of media, each supplemented with 10% fetal bovine serum (Invitrogen, San Diego, CA) at 37° C. with 5% CO2/air. The media used was RPMI1640 (Sigma-Aldrich, St. Louis, Mo.) for NCI-H1755, NCI-H2030, NCI-H1437, NCI-H2122, NCI-H2172, NCI-H2228, NCI-H1563, NCI-H1944, NCI-H1993, NCI-H1734, NCI-H1568, NCI-H2444, NCI-H2291, NCI-H2347, NCI-H1838, NCI-H1299, HCC827, NCI-H1975, NCI-H1155, NCI-H522 and NCI-H1703; RPMI1640 supplemented with 2mM L-glutamine (Invitrogen) for NCI-H727; RPMI1640 supplemented with 4.5 g/L D-glucose (Sigma-Aldrich), 10 mM HEPES (Sigma-Aldrich) and 1 mM sodium pyruvate (Sigma-Aldrich) for NCI-H358, NCI-H520, NCI-H23, NCI-H647 and NCI-H838; Ham's F12K (Sigma-Aldrich) for A549. CDDP was purchased from Sigma-Aldrich. Sulforaphane (SFN) was purchased from Sigma-Aldrich. All NSCLC cell lines were purchased from ATCC and STR analysis had been performed by ATCC to authenticate the identity of each cell line. All cell lines were used within three months after thawing.
(§2) Cell cycle analysis. Cells were plated in 24-well plates and incubated for 24 hours. The cells were treated with or without CDDP plus or minus CBP501 at the indicated concentration for the indicated times. The cells were harvested and stained with Krishan's solution (0.1% sodium citrate, 50 μg/ml propidium iodide, 20 μg/ml RNase A, 0.5% NP-40). Stained cells were analyzed by FACSCalibur (Becton Dickinson, Franklin Lakes, N.J.) using CELLQuest software (Becton Dickinson).
(§3) Here, the change in the cell cycle distribution, as indicated by flow-cytometry, was used to estimate the sensitivity of NSCLC cell lines to CBP501-enhanced cytotoxicity to CDDP. Such changes were monitored in cells treated with CDDP in the presence or absence of CBP501. The utility of this analysis for assessing the effectiveness of anti-cancer therapy is based on the absence of functioning G1/S checkpoint regulation in the cell cycle of many types of cancer cells (14). Lack of a functional G1/S checkpoint leads to an accumulation of cancer cells in G2/M phase upon their exposure to DNA-damaging anticancer agents (14, 15).
(§4) To assess the CDDP-enhancing activity of CBP501, one can examine either of two dose-response curves in which the X-axis indicates the dose of CDDP and Y-axis indicates either the number of cells in subG1 or in G2/M. The transition and peak in either dose-response curve will shift to the left in the presence of CBP501 for CBP501-sensitive cells, indicating the enhanced ability of CDDP to change the cell cycle distribution. […] Using this criterion based on CBP501's ability to shift the CDDP-induced subG1 or G2/M dose-response curve, twelve NSCLC cell lines were classified as being either, CBP501-sensitive or CBP501-insensitive. Cell lines that shifted the curve two fold or more were classified as CBP501 sensitive cells and those that shifted the curve less than two fold were classified as CBP501 insensitive (Table 1). Classification of CBP501 sensitivity in NSCLC cell lines.
(§5) Although the expression of Nrf2 or its several downstream transcription targets may possibly predict resistance to CBP501, the general reliability of these predictive markers for CBP501-sensitivity remained to be established. The combination effect of CBP501 and CDDP in sixteen additional NSCLC cell lines, classifying each as CBP501 sensitive or insensitive by the prior criteria was analyzed (Table 2). Classification of CBP501 sensitivity in additional NSCLC cell lines.

NCI-H1299 = test: as above; assay type: cell-based, Human; conditions: 1 h co-exposure with CDDP, shift of subG1 or G2/M dose-response curve
Protocol: as §1, §2, §3, §4, §5

NCI-H647 = test: as above; assay type: cell-based, Human; conditions: 1 h co-exposure with CDDP, shift of subG1 or G2/M dose-response curve
Protocol: as §1, §2, §3, §4, §5

NCI-H1563 = test: as above; assay type: cell-based, Human; conditions: 1 h co-exposure with CDDP
Protocol: as §1, §2, §3, §4, §5

HCC827 = test: as above; assay type: cell-based, Human; conditions: 1 h co-exposure with CDDP
Protocol: as §1, §2, §3, §4, §5

NCI-H358 = test: as above; assay type: cell-based, Human; conditions: 1 h co-exposure with CDDP, shift of subG1 or G2/M dose-response curve
Protocol: as §1, §2, §3, §4, §5

NCI-H727 = test: as above; assay type: cell-based, Human; conditions: 1 h co-exposure with CDDP
Protocol: as §1, §2, §3, §4, §5

cancer cells = conditions: shorter exposure and lower doses of CBP501 than required for G2 checkpoint abrogation; cited from earlier work
NCI-H2347 = test: CDDP-enhancing activity of CBP501, cell cycle distribution by flow-cytometry; assay type: cell-based, Human; conditions: 1 h co-exposure with CDDP
Protocol: as §1, §2, §3, §4

NCI-H2122 = test: as above; assay type: cell-based, Human; conditions: 1 h co-exposure with CDDP, shift of subG1 or G2/M dose-response curve
Protocol: as §1, §2, §3, §4

NCI-H1944 = test: as above; assay type: cell-based, Human; conditions: 1 h co-exposure with CDDP, shift of subG1 or G2/M dose-response curve
Protocol: as §1, §2, §3, §4

NCI-H2444 = test: as above; assay type: cell-based, Human; conditions: 1 h co-exposure with CDDP
Protocol: as §1, §2, §3, §4

NCI-H2291 = test: as above; assay type: cell-based, Human; conditions: 1 h co-exposure with CDDP
Protocol: as §1, §2, §3, §4

NCI-H2228 = test: as above; assay type: cell-based, Human; conditions: 1 h co-exposure with CDDP
Protocol: as §1, §2, §3, §4

NCI-H1568 = test: as above; assay type: cell-based, Human; conditions: 1 h co-exposure with CDDP
Protocol: as §1, §2, §3, §4

NCI-H2030 = test: as above; assay type: cell-based, Human; conditions: 1 h co-exposure with CDDP, shift of subG1 or G2/M dose-response curve
Protocol: as §1, §2, §3, §4

NCI-H2172 = test: as above; assay type: cell-based, Human; conditions: 1 h co-exposure with CDDP, shift of subG1 or G2/M dose-response curve
Protocol: as §1, §2, §3, §4

NCI-H838 = test: as above; assay type: cell-based, Human; conditions: 1 h co-exposure with CDDP; for Folds increase of CDDP effect by CBP501: shift of subG1 or G2/M dose-response curve
Protocol: as §1, §2, §3, §4

[1] = tested on: platinum-resistant ovarian carcinoma and MPM; conditions: cited from earlier work
[2] = shift of subG1 or G2/M dose-response curve
[3] = NCI-H838 (Table 2, additional cell lines)

Substance: (d-Bpa)(d-Ser)(d-Trp)(d-Ser)(d-Phe-2,3,4,5,6-F)(d-Cha)(d-Arg)(d-Arg)(d-Arg)(d-Gln)(d-Arg)(d-Arg) ([dBpa][dS][dW][dS][dPhe(F5)][dCha][dR][dR][dR][dQ][dR][dR]) [CBP501, anti-cancer drug candidate; calmodulin modulation and G2 checkpoint abrogation]
- Folds increase of CDDP effect by CBP501 (A549): 2 fold
- Folds increase of CDDP effect by CBP501 (NCI-H1299): 8 fold
- Folds increase of CDDP effect by CBP501 (NCI-H647): 1.5 fold
- Definition of CBP501 sensitivity (NCI-H1563): Insensitive (those that shifted the curve less than two fold were classified as CBP501 insensitive)
- Folds increase of CDDP effect by CBP501 (NCI-H1563; [2]): 1.5 fold
- Definition of CBP501 sensitivity (HCC827): Sensitive (Cell lines that shifted the curve two fold or more were classified as CBP501 sensitive cells)
- Folds increase of CDDP effect by CBP501 (HCC827; [2]): 4 fold
- Folds increase of CDDP effect by CBP501 (NCI-H358): 1 fold
- Definition of CBP501 sensitivity (NCI-H727): Insensitive (those that shifted the curve less than two fold were classified as CBP501 insensitive)
- Folds increase of CDDP effect by CBP501 (NCI-H727; [2]): 1 fold
- Uptake of CDDP into cancer cells (cancer cells): increased uptake of CDDP into cancer cells
- Definition of CBP501 sensitivity (NCI-H2347): Sensitive (Cell lines that shifted the curve two fold or more were classified as CBP501 sensitive cells)
- Folds increase of CDDP effect by CBP501 (NCI-H2347; [2]): 4 fold
- Folds increase of CDDP effect by CBP501 (NCI-H2122): 1 fold
- Folds increase of CDDP effect by CBP501 (NCI-H1944): 1.5 fold
- Definition of CBP501 sensitivity (NCI-H2444): Sensitive (Cell lines that shifted the curve two fold or more were classified as CBP501 sensitive cells)
- Folds increase of CDDP effect by CBP501 (NCI-H2444; [2]): 2 fold
- Definition of CBP501 sensitivity (NCI-H2291): Sensitive (Cell lines that shifted the curve two fold or more were classified as CBP501 sensitive cells)
- Folds increase of CDDP effect by CBP501 (NCI-H2291; [2]): 2 fold
- Definition of CBP501 sensitivity (NCI-H2228): Insensitive (those that shifted the curve less than two fold were classified as CBP501 insensitive)
- Folds increase of CDDP effect by CBP501 (NCI-H2228; [2]): 1.5 fold
- Definition of CBP501 sensitivity (NCI-H1568): Sensitive (Cell lines that shifted the curve two fold or more were classified as CBP501 sensitive cells)
- Folds increase of CDDP effect by CBP501 (NCI-H1568; [2]): 2 fold
- Folds increase of CDDP effect by CBP501 (NCI-H2030): 1 fold
- Folds increase of CDDP effect by CBP501 (NCI-H2172): 1.5 fold
- Folds increase of CDDP effect by CBP501 (NCI-H838; NCI-H838 (Table 1, initial twelve cell lines)): 4 fold
- Definition of CBP501 sensitivity (NCI-H838; [3]): Sensitive (Cell lines that shifted the curve two fold or more were classified as CBP501 sensitive cells)
- Folds increase of CDDP effect by CBP501 (NCI-H838; [3]): 2 fold
- Primary endpoint for efficacy ([1]; MPM): primary endpoint for efficacy was achieved
- Clinical activity ([1]; combination of CDDP plus CBP501, patients with platinum-resistant ovarian carcinoma and MPM): showed evidence of clinical activity
